Results: ChEMBL document CHEMBL5338775, “Discovery of a Novel Class of PROTACs as Potent and Selective Estrogen Receptor α Degraders to Overcome Endocrine-Resistant Breast Cancer In Vitro and In Vivo” (J Med Chem, 2023)
Active and inactive are the calls of the source. No cut-off for these calls is given here.

Columns and labels:
Estrogen receptor beta [1] = target: T1, Estrogen receptor beta (Homo sapiens, UniProt Q92731); assay: Binding affinity to ERbeta (unknown origin) assessed as relative binding affinity incubated for 2 hrs by fluorescence polarization assay relative to estradiol
[2] = Selectivity ratio of relative binding affinity for ERalpha (unknown origin) to relative binding affinity to ERbeta (unknown origin)
[3] = Selectivity index, ratio of Ki for ERalpha (unknown origin) to Ki for ERbeta (unknown origin)
[4] = target: Protein cereblon/Estrogen receptor (Homo sapiens) (UniProt P03372+Q96SW2); assay: PROTAC activity at CRBN/wild type ERalpha in ER-positive human MCF7 cells assessed as induction of ERalpha degradation at 1 uM incubated for 12 hrs by Western blot analysis; type: cell-based
Estrogen receptor = target: T2, Estrogen receptor (Homo sapiens, UniProt P03372)
T2 sequence (P03372 whole entry): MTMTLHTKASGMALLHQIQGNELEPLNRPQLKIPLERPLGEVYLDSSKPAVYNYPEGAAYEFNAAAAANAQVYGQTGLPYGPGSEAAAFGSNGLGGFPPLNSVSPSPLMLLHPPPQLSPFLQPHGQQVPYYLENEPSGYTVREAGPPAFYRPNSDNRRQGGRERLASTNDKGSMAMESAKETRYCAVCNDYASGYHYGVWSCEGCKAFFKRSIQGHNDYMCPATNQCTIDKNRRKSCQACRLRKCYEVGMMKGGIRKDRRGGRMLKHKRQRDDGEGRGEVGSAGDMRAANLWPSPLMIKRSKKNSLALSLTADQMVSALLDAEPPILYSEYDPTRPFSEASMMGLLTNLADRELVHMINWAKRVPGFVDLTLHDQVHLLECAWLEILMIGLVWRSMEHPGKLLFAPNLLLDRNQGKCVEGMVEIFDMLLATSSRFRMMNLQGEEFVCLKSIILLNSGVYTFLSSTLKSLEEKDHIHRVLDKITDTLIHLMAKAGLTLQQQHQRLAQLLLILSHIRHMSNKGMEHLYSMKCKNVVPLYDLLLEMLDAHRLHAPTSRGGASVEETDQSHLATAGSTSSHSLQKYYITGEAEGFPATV

Estrogen receptor beta [5] = target: T1, Estrogen receptor beta
MCF7 = assay: cells; conditions: Homo sapiens, MCF7, 72 h
cells = conditions: Homo sapiens, Tamoxifen-resistant LCC2 cell, 72 h
T47D [6] = assay: cells; conditions: Homo sapiens, 72 h
T47D [7] = assay: cells; conditions: Homo sapiens, 72 h; remark: listed apart in the source
T47D [8] = assay: cells; conditions: Homo sapiens, 72 h; remark: listed apart in the source
MDA-MB-231 = assay: cells; conditions: Homo sapiens, MDA-MB-231, 72 h
in vitro = conditions: human, MCF-10A cells

Protein cereblon/Estrogen receptor (Homo sapiens), sequence (Q96SW2 whole entry, looked up, one chain of several): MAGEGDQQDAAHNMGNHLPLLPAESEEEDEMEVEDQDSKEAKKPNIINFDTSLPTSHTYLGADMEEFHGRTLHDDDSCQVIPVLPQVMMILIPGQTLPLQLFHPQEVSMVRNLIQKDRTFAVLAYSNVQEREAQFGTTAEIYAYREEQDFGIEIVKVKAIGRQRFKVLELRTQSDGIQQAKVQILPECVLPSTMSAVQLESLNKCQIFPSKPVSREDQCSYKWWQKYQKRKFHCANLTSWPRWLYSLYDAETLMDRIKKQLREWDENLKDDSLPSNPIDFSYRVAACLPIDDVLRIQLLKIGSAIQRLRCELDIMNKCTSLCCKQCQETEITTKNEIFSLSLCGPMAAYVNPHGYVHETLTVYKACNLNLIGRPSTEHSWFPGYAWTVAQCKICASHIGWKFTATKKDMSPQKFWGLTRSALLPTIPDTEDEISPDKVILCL
T1 sequence (Q92731 whole entry): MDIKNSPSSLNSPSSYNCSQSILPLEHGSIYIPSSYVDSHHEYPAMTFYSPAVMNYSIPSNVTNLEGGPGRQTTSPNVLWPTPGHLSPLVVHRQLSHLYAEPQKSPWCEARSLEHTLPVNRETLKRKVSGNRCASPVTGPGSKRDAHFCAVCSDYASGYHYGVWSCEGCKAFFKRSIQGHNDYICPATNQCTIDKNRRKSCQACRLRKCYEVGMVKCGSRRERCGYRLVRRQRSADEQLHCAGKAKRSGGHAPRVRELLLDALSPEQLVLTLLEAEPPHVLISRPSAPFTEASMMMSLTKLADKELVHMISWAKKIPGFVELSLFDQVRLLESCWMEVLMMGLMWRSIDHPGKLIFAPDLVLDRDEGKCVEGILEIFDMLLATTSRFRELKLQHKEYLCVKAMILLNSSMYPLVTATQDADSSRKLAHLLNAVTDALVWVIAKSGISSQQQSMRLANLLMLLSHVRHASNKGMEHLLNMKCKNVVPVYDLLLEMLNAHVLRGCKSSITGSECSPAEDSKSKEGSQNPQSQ

## O=C(COc1ccc(C2CCC(=O)NC2=O)cc1)NCCNC(=O)COc1ccc(N(CC(F)(F)F)S(=O)(=O)C2CC3OC2C(c2ccc(O)cc2)=C3c2ccc(O)cc2)cc1 (stereo not drawn)
Estrogen receptor beta [1]
  RBA: 0.16%
[2]
  Selectivity ratio: 1.31
[3]
  Ratio Ki: 5.08
[4]
  Activity: Active
Estrogen receptor
  Ki: 0.97 µM
Estrogen receptor beta [5]
  Ki: 4.91 µM
MCF7
  IC50: 1.14 µM
cells
  IC50: 21 µM
T47D [6]
  IC50: 17.3 µM
T47D [7]
  IC50: 19.7 µM
T47D [8]
  IC50: 21.4 µM
MDA-MB-231
  IC50: > 100 µM
In vitro
  IC50 at 72 h: 13.7 µM

## CC/C(=C(\c1ccc(O)cc1)c1ccc(OCCN(C)C)cc1)c1ccccc1 [AFIMOXIFENE]
cells
  IC50: 22.2 µM
T47D [6]
  IC50: 1.95 µM
T47D [7]
  IC50: 11.6 µM
T47D [8]
  IC50: 9.89 µM

## CCN(c1ccc(OCCCCC(=O)N[C@H](C(=O)N2C[C@H](O)C[C@H]2C(=O)N[C@@H](C)c2ccc(-c3scnc3C)cc2)C(C)(C)C)cc1)S(=O)(=O)C1CC2OC1C(c1ccc(O)cc1)=C2c1ccc(O)cc1 (stereo partly drawn)
Estrogen receptor beta [1]
  RBA: 0.11%
[2]
  Selectivity ratio: 1.45
[3]
  Ratio Ki: 5.63
Estrogen receptor
  Ki: 1.27 µM
Estrogen receptor beta [5]
  Ki: 7.15 µM
MCF7
  IC50: 0.93 µM
cells
  IC50: 16.8 µM
T47D [6]
  IC50: 14.2 µM
T47D [7]
  IC50: 14.6 µM
T47D [8]
  IC50: 18.1 µM
MDA-MB-231
  IC50: > 100 µM
In vitro
  IC50 at 72 h: 2.4 µM

## CCN(c1ccc(OCCCCCCCCCC(=O)N[C@H](C(=O)N2C[C@H](O)C[C@H]2C(=O)NCc2ccc(-c3scnc3C)cc2)C(C)(C)C)cc1)S(=O)(=O)C1CC2OC1C(c1ccc(O)cc1)=C2c1ccc(O)cc1 (stereo partly drawn)
Estrogen receptor beta [1]
  RBA: 0.08%
[2]
  Selectivity ratio: 0.75
[3]
  Ratio Ki: 2.9
Estrogen receptor
  Ki: 3.38 µM
Estrogen receptor beta [5]
  Ki: 9.83 µM
MCF7
  IC50: > 10 µM
cells
  IC50: > 30 µM
T47D [6]
  IC50: > 30 µM
T47D [7]
  IC50: > 30 µM
T47D [8]
  IC50: > 30 µM
MDA-MB-231
  IC50: > 100 µM
In vitro
  IC50 at 72 h: > 100 µM

## O=C(COc1ccc(C2CCC(=O)NC2=O)cc1)NCCCCCCNC(=O)COc1ccc(N(CC(F)(F)F)S(=O)(=O)C2CC3OC2C(c2ccc(O)cc2)=C3c2ccc(O)cc2)cc1 (stereo not drawn)
Estrogen receptor beta [1]
  RBA: 0.11%
[2]
  Selectivity ratio: 1.64
[3]
  Ratio Ki: 6.34
[4]
  Activity: Active
Estrogen receptor
  Ki: 1.13 µM
Estrogen receptor beta [5]
  Ki: 7.15 µM
MCF7
  IC50: 6.52 µM
cells
  IC50: > 30 µM
T47D [6]
  IC50: > 30 µM
T47D [7]
  IC50: > 30 µM
T47D [8]
  IC50: > 30 µM
MDA-MB-231
  IC50: > 100 µM
In vitro
  IC50 at 72 h: > 30 µM

## O=C(COc1cccc2c1C(=O)N(C1CCC(=O)NC1=O)C2=O)NCCCCOc1ccc(N(CC(F)(F)F)S(=O)(=O)C2CC3OC2C(c2ccc(O)cc2)=C3c2ccc(O)cc2)cc1 (stereo not drawn)
Estrogen receptor beta [1]
  RBA: 0.07%
[2]
  Selectivity ratio: 0.86
[3]
  Ratio Ki: 3.32
[4]
  Activity: inactive
Estrogen receptor
  Ki: 3.38 µM
Estrogen receptor beta [5]
  Ki: 11.2 µM
MCF7
  IC50: > 50 µM
cells
  IC50: > 50 µM
T47D [6]
  IC50: > 50 µM
T47D [7]
  IC50: > 50 µM
T47D [8]
  IC50: > 50 µM
MDA-MB-231
  IC50: > 100 µM
In vitro
  IC50 at 72 h: > 100 µM

## CCN(c1ccc(OCCCCCCCC(=O)N[C@H](C(=O)N2C[C@H](O)C[C@H]2C(=O)NCc2ccc(-c3scnc3C)cc2)C(C)(C)C)cc1)S(=O)(=O)C1CC2OC1C(c1ccc(O)cc1)=C2c1ccc(O)cc1 (stereo partly drawn)
Estrogen receptor beta [1]
  RBA: 0.1%
[2]
  Selectivity ratio: 2.7
[3]
  Ratio Ki: 10.4
Estrogen receptor
  Ki: 0.75 µM
Estrogen receptor beta [5]
  Ki: 7.86 µM
MCF7
  IC50: > 10 µM
cells
  IC50: > 30 µM
T47D [6]
  IC50: > 30 µM
T47D [7]
  IC50: > 30 µM
T47D [8]
  IC50: > 30 µM
MDA-MB-231
  IC50: > 100 µM
In vitro
  IC50 at 72 h: > 100 µM

## CCN(c1ccc(OCCCCCCCCC(=O)N[C@H](C(=O)N2C[C@H](O)C[C@H]2C(=O)NCc2ccc(-c3scnc3C)cc2)C(C)(C)C)cc1)S(=O)(=O)C1CC2OC1C(c1ccc(O)cc1)=C2c1ccc(O)cc1 (stereo partly drawn)
Estrogen receptor beta [1]
  RBA: 0.07%
[2]
  Selectivity ratio: 0.57
[3]
  Ratio Ki: 2.21
Estrogen receptor
  Ki: 5.08 µM
Estrogen receptor beta [5]
  Ki: 11.2 µM
MCF7
  IC50: > 10 µM
cells
  IC50: > 30 µM
T47D [6]
  IC50: > 30 µM
T47D [7]
  IC50: > 30 µM
T47D [8]
  IC50: > 30 µM
MDA-MB-231
  IC50: > 100 µM
In vitro
  IC50 at 72 h: > 100 µM

## CCN(c1ccc(OCCCCCC(=O)Nc2cccc3c2C(=O)N(C2CCC(=O)NC2=O)C3=O)cc1)S(=O)(=O)C1CC2OC1C(c1ccc(O)cc1)=C2c1ccc(O)cc1 (stereo not drawn)
Estrogen receptor beta [1]
  RBA: 0.18%
[2]
  Selectivity ratio: 1.17
[3]
  Ratio Ki: 4.52
[4]
  Activity: inactive
Estrogen receptor
  Ki: 0.97 µM
Estrogen receptor beta [5]
  Ki: 4.37 µM
MCF7
  IC50: > 100 µM
cells
  IC50: > 100 µM
T47D [6]
  IC50: > 100 µM
T47D [7]
  IC50: > 100 µM
T47D [8]
  IC50: > 100 µM
MDA-MB-231
  IC50: > 100 µM
In vitro
  IC50 at 72 h: > 100 µM

## O=C(COc1ccc(C2CCC(=O)NC2=O)cc1)NCCCCNC(=O)COc1ccc(N(CC(F)(F)F)S(=O)(=O)C2CC3OC2C(c2ccc(O)cc2)=C3c2ccc(O)cc2)cc1 (stereo not drawn)
Estrogen receptor beta [1]
  RBA: 0.18%
[2]
  Selectivity ratio: 0.89
[3]
  Ratio Ki: 3.44
[4]
  Activity: Active
Estrogen receptor
  Ki: 1.27 µM
Estrogen receptor beta [5]
  Ki: 4.37 µM
MCF7
  IC50: 0.69 µM
cells
  IC50: 14.5 µM
T47D [6]
  IC50: 14.6 µM
T47D [7]
  IC50: 17.7 µM
T47D [8]
  IC50: 15.2 µM
MDA-MB-231
  IC50: > 100 µM
In vitro
  IC50 at 72 h: 9.45 µM

## CCN(c1ccc(OCCCCCCC(=O)N[C@H](C(=O)N2C[C@H](O)C[C@H]2C(=O)NCc2ccc(-c3scnc3C)cc2)C(C)(C)C)cc1)S(=O)(=O)C1CC2OC1C(c1ccc(O)cc1)=C2c1ccc(O)cc1 (stereo partly drawn)
Estrogen receptor beta [1]
  RBA: 0.12%
[2]
  Selectivity ratio: 1.58
[3]
  Ratio Ki: 6.13
Estrogen receptor
  Ki: 1.07 µM
Estrogen receptor beta [5]
  Ki: 6.55 µM
MCF7
  IC50: 0.43 µM
cells
  IC50: > 30 µM
T47D [6]
  IC50: > 30 µM
T47D [7]
  IC50: > 30 µM
T47D [8]
  IC50: > 30 µM
MDA-MB-231
  IC50: > 100 µM
In vitro
  IC50 at 72 h: > 100 µM

## CCN(c1ccc(OCCCCCCC(=O)N[C@H](C(=O)N2C[C@H](O)C[C@H]2C(=O)N[C@@H](C)c2ccc(-c3scnc3C)cc2)C(C)(C)C)cc1)S(=O)(=O)C1CC2OC1C(c1ccc(O)cc1)=C2c1ccc(O)cc1 (stereo partly drawn)
Estrogen receptor beta [1]
  RBA: 0.07%
[2]
  Selectivity ratio: 1.43
[3]
  Ratio Ki: 5.53
Estrogen receptor
  Ki: 2.03 µM
Estrogen receptor beta [5]
  Ki: 11.2 µM
MCF7
  IC50: 0.57 µM
cells
  IC50: > 30 µM
T47D [6]
  IC50: > 30 µM
T47D [7]
  IC50: > 30 µM
T47D [8]
  IC50: > 30 µM
MDA-MB-231
  IC50: > 100 µM
In vitro
  IC50 at 72 h: > 100 µM

## CCN(c1ccc(OCCCCC(=O)N[C@H](C(=O)N2C[C@H](O)C[C@H]2C(=O)NCc2ccc(-c3scnc3C)cc2)C(C)(C)C)cc1)S(=O)(=O)C1CC2OC1C(c1ccc(O)cc1)=C2c1ccc(O)cc1 (stereo partly drawn)
Estrogen receptor beta [1]
  RBA: 0.13%
[2]
  Selectivity ratio: 2.15
[3]
  Ratio Ki: 8.34
Estrogen receptor
  Ki: 0.73 µM
Estrogen receptor beta [5]
  Ki: 6.05 µM
MCF7
  IC50: 1.11 µM
cells
  IC50: 15.2 µM
T47D [6]
  IC50: 3.03 µM
T47D [7]
  IC50: 4.58 µM
T47D [8]
  IC50: 7.27 µM
MDA-MB-231
  IC50: > 100 µM
In vitro
  IC50 at 72 h: 1.03 µM
